{"source": "paper PMC5634595", "about": "“Properties of halogenated and sulfonated porphyrins relevant for the selection of photosensitizers in anticancer and antimicrobial therapies” (PLoS ONE, 2017)", "key": {"[1]": {"assay": "UV/Vis absorption spectra, molar absorption coefficients", "type": "physicochemical", "conditions": "EtOH", "procedure": "All commercial chemicals and reagents were of analytical grade and were purchased from Sigma-Aldrich. UV/Vis absorption spectra were recorded in a Hewlett Packard HP8453 spectrophotometer. Solutions containing samples of photosensitizers were dissolved in the selected solvent in quartz cuvettes. Using measured absorbance for various concentrations of porphyrin in ethanol, the molar absorption coefficients were determined from Beer’s law."}, "[2]": {"assay": "Fluorescence emission and fluorescence quantum yield (comparative method)", "type": "physicochemical", "conditions": "EtOH, TPP as standard", "procedure": "(§1) Fluorescence emission spectra were recorded from 550 nm to 750 nm with excitation at Soret band (λ≈420 nm). The excitation and emission slits were both set to 8 nm and scanning speed to 50 nm/min. Fluorescence spectra were recorded with a Perkin Elmer Fluorescence Spectrometer LS 55. Determination of fluorescence quantum yields: ΦF of studied photosensitizers was determined using the comparative method according to the equation: ΦF=ΦFStd⋅FAStdn^2/FStdAnStd2, (1) where F and FStd are the areas under the fluorescence emission curves of the sample and the standard, A and AStd are the absorbance of the sample and the standard and n are the refractive indices of the solvent used for the sample and the standard, respectively. Commercially available tetraphenylporphyrin TPP (Std) (ΦF = 0.10 in toluene) was employed as the standard. The absorbance of the solutions at the excitation wavelength was in the range of 0.02. Singlet oxygen quantum yields were determined based on the relative phosphorescence emissions of singlet oxygen generated by a reference and by each one of the porphyrins, using a method described elsewhere. Briefly, a modified Applied Photophysics LKS.60 flash photolysis spectrometer with a Hamamatsu NIR photomultiplier for detection and HP Infinium (500 MHz, 1GSas^-1) or Tektronix DPO 7254 (2.5 GHz, 40GSas^-1) oscilloscopes were used. The adaptation of this spectrometer allowed for the detection of singlet oxygen phosphorescence at room temperature. This emission was detected using a Hamamatsu R5509–42 photomultiplier, cooled to 193 K in a liquid nitrogen chamber. […] The modification of the spectrometer for time-resolved singlet oxygen phosphorescence measurements involved the interposition of a Melles Griot cold mirror (03MCS005), which reflects more than 99% of the incident light in the 400–700 nm range, and of a Scotch RG665 filter. A 600 line diffraction grating was mounted in place of a standard one. […] Solutions of photosensitizers were prepared with matched absorbances close to 0.2 at 355 nm. […]"}, "[3]": {"assay": "Singlet oxygen quantum yield by phosphorescence at 1270 nm", "type": "physicochemical", "conditions": "EtOH, phenalenone as reference", "procedure": "as §1"}, "[4]": {"assay": "n-Octanol/PBS partition coefficient, shake-flask", "type": "physicochemical", "conditions": "modified shake-flask", "procedure": "The n-octanol/PBS partition coefficients were measured following shake-flask method with minor modifications. The photosensitizers were dissolved in n-octanol previously saturated with a solution of PBS. The same volume of PBS saturated with n-octanol was added and mixed on a vortex device and then the phases were separated by centrifugation. Next, the PBS/n-octanol phase was taken and diluted to obtain 0.5% of PBS/n-octanol content in the final solution. This solution was left into the ultrasonic bath. The fluorescence of each solution was measured using Fluorescence Spectrometer LS 55 (Perkin Elmer) and compared with calibration curve to obtain the concentration of the photosensitizer. Partition coefficients were calculated from the ratio coct/cPBS, where coct and cPBS are the concentrations of the porphyrin derivatives in the n-octanol and in the PBS."}, "[5]": {"assay": "Dynamic light scattering and zeta potential of PS-Pluronic L121 micelles", "type": "physicochemical", "conditions": "Pluronic L121-based formulation, DLS, homogeneous distribution", "procedure": "Micellar formulations with Pluronic […] were prepared according to a method recently described. The micelles were characterized by Dynamic Light Scattering (DLS) using a Malvern Zetaziser Nano ZS system. The apparent diffusion coefficients of the micelles were obtained from the normalized time correlation function of the scattered electric field, g(1)(τ), using the cumulants analysis. An average value was obtained from repeated measurements for each sample (N = 3)."}, "2H11 cells": {"test_system": "2H11 cells", "assay": "Dark cytotoxicity, MTT", "type": "cell-based, murine", "conditions": "2H11, 100 μM, 24 h", "procedure": "(§2) The studies were performed on human lung adenocarcinoma (A549), murine colon carcinoma (CT26) and murine endothelial/vascular epithelium (2H11) cell lines. A549, CT26 and 2H11 cells were grown in full-strength DMEM with 4.5 g/L glucose, L-glutamine, sodium pyruvate and 3.7 g/L NaHCO3 (BioTech) with addition of 10% fetal bovine serum (BioTech, Poland) and supplemented by antibiotics (penicillin/streptomycin). Before the experiments, the cells were washed with PBS, removed by trypsinization, then re-plated into microplate (or culture flask) with appropriate cells density and maintained in a humidified atmosphere at 37 °C and 5% CO2.\n(§3) MTT cytotoxicity assay (which determines the mitochondrial activity), based upon the ability of living cells to reduce (3-(4,5-dimethylthiazol-2-yl)2,5-diphenyl tetrazolium bromide (MTT) into formazan was used to assess photosensitizer-mediated cytotoxicity. Two identical 96-well plates with A549, CT26 or 2H11 cell cultures seeded on 96-plate microplate (10^4 per well) were used for each experiment. When the cells were attached to the plates, PS solution in growth medium (DMSO<0.5%) at concentrations between 0.1 to 100 μM was added to the culture. Treated cultures were incubated for optimal time (estimated experimentally) at 37°C in the dark. […] Data were expressed as mean absorbance value of six samples and standard error of the mean."}, "CT26 cells": {"test_system": "CT26 cells", "assay": "Dark cytotoxicity, MTT", "type": "cell-based, murine", "conditions": "CT26, 100 μM, 24 h", "procedure": "as §2, §3"}}}
{"smiles": "O=S(=O)(O)c1ccc(F)c(-c2c3nc(c(-c4c(F)ccc(S(=O)(=O)O)c4F)c4ccc([nH]4)c(-c4c(F)ccc(S(=O)(=O)O)c4F)c4nc(c(-c5c(F)ccc(S(=O)(=O)O)c5F)c5ccc2[nH]5)C=C4)C=C3)c1F", "note": "[F2POH, 5,10,15,20-tetrakis(2,6-difluoro-3-sulfophenyl)porphyrin]", "values": [{"measurement": "Absorption λmax, Qx (0,1)", "setting": "[1]", "result": 584, "unit": "nm"}, {"measurement": "Absorption λmax, Qx(0,0)", "setting": "[1]", "result": 638, "unit": "nm"}, {"measurement": "Absorption λmax, Qy (0,0)", "setting": "[1]", "result": 532, "unit": "nm"}, {"measurement": "Absorption λmax, Qy (0,1)", "setting": "[1]", "result": 508, "unit": "nm"}, {"measurement": "Absorption λmax, B(0,0)", "setting": "[1]; Soret band", "result": 420, "unit": "nm"}, {"measurement": "Fluorescence quantum yield ΦF", "setting": "[2]", "result": 0.040}, {"measurement": "Singlet oxygen quantum yield ΦΔ", "setting": "[3]", "result": 0.71}, {"measurement": "logP", "setting": "[4]", "result": -1.74}, {"measurement": "Particle Diameter (hydrodynamic diameter)", "setting": "[5]", "result": "ca. 115 nm"}, {"measurement": "Cytotoxicity in the dark", "setting": "2H11 cells", "result": 25, "unit": "%"}, {"measurement": "Cytotoxicity in the dark", "setting": "CT26 cells", "result": 25, "unit": "%"}]}
